Measured values from patent publication US20260207585A1, “METHODS AND COMPOSITIONS FOR THE TREATMENT OF PARKINSON'S DISEASE, HUNTINGTON'S DISEASE, AMYOTROPHIC LATERAL SCLEROSIS, AND LEARNING DISORDERS” (Cedars-Sinai Medical Center, priority 2022, published 2026).
Where two headings read alike, the source gives them in different places.

Key:
Format in all cases: biochemical
G9a = target: T1, G9a (Homo sapiens, UniProt Q96KQ7); assay: Methyltransferase inhibition panel: G9a
T1 sequence (Q96KQ7 1-1210): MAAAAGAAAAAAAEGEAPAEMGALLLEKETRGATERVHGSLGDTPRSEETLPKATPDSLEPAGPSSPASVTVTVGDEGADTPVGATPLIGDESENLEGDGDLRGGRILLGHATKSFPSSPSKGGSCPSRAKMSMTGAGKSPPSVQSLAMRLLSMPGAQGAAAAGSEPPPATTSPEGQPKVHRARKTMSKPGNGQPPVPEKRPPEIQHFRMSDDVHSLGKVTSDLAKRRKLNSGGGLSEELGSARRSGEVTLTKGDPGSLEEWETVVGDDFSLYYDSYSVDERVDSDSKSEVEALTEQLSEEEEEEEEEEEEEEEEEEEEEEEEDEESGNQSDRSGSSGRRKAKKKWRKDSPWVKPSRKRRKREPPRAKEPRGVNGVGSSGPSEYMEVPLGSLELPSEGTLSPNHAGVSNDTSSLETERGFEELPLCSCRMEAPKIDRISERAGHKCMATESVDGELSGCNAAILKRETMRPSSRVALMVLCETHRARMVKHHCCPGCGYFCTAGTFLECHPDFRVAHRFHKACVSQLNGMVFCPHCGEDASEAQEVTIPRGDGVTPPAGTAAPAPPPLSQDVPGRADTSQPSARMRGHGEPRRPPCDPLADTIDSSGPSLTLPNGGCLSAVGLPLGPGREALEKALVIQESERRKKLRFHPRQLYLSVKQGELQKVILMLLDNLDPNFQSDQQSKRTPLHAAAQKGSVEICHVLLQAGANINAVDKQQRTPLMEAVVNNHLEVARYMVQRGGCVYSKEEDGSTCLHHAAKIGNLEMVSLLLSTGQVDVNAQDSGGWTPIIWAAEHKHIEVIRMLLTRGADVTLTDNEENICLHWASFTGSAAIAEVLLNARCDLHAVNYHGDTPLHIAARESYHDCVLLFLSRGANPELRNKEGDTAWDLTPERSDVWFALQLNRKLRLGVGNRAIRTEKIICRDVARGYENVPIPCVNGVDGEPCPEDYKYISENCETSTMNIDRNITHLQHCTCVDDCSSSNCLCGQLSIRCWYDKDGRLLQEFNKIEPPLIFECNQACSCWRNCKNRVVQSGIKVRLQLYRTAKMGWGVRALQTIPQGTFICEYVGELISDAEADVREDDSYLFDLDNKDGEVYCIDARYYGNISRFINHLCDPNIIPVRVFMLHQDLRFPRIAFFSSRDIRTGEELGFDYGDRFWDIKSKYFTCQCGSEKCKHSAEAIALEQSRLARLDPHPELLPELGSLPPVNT
Description: (§1) The ability of ETP69 to inhibit methyltransferases was tested.

MLL4 Complex = MLL4 Complex (Homo sapiens, UniProt Q9UMN6); assay: Methyltransferase inhibition panel: MLL4 Complex
Description: as §1

DNMT3b = DNMT3b (Homo sapiens, UniProt Q9UBC3); assay: Methyltransferase inhibition panel: DNMT3b
Description: as §1

[1] = read-out: Enzyme % Activity (relative to DMSO controls) Data 1
[2] = read-out: Enzyme % Activity (relative to DMSO controls) Data 2

MLL4 Complex, sequence (Q9UMN6 2490-2715): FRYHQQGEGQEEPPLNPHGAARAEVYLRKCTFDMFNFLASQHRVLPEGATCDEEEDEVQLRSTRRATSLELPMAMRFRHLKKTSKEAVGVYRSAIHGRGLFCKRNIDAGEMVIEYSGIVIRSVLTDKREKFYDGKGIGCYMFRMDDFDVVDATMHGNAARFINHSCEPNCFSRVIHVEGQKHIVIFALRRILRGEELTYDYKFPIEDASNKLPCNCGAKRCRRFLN
MLL4 Complex, sequence (Q9C005 whole entry, further chain): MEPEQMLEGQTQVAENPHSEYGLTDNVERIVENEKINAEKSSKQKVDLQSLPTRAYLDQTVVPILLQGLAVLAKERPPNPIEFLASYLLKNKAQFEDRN
MLL4 Complex, sequence (Q9UBL3 whole entry, further chain): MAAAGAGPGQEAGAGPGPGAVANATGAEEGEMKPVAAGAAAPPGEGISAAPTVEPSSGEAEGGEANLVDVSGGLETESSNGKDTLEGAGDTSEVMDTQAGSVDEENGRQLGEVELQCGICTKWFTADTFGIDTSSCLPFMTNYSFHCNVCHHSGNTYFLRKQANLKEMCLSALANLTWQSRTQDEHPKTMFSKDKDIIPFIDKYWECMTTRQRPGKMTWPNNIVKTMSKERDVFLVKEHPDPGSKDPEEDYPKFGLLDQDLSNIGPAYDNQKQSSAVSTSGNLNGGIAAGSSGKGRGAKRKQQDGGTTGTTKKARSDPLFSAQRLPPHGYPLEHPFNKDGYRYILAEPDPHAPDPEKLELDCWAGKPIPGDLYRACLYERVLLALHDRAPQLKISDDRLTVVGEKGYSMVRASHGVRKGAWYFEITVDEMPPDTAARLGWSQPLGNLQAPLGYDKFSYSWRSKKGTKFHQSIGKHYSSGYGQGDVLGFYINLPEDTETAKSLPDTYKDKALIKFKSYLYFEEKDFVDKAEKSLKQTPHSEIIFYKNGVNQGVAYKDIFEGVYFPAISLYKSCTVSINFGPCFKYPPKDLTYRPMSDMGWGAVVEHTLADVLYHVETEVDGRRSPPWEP
MLL4 Complex, sequence (Q15291 whole entry, further chain): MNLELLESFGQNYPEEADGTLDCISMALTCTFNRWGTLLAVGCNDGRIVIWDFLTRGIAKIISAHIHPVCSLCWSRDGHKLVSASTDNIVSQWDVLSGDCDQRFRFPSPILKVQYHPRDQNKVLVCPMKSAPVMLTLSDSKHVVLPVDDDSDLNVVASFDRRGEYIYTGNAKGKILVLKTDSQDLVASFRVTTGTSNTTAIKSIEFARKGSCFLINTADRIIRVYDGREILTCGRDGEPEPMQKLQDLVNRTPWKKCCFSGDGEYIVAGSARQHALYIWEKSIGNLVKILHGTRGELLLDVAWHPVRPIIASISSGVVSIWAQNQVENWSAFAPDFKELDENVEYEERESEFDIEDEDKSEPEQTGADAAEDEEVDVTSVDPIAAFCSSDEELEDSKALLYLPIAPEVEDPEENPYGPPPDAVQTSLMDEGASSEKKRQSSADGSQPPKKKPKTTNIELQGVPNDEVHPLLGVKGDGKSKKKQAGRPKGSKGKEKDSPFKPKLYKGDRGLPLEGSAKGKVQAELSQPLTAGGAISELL

With `CN1C(=O)[C@@]23C[C@](C)(C#N)[C@H](c4ccc5c(c4)OCO5)N2C(=O)[C@]1(C)SS3` (racemic) [ETP69, Rac-(3S,6S,7S,8aS)-6-(benzo[d][1,3]dioxol-5-yl)-2,3,7-trimethyl-1,4-dioxohexahydro-6H-3,8a-epidithiopyrrolo[1,2-a]pyrazine-7-carbonitrile] the remaining activity at 2.5 µM (G9a; [1]) was 40.9%, the remaining activity at 2.5 µM (G9a; [2]) was 38.7% and the “inhibition relative to DMSO controls” value (G9a; summary of Table 1) was “at least 7500”. The remaining activity at 20 µM (MLL4 Complex; [1]) was 1.32%, the remaining activity at 20 µM (MLL4 Complex; [2]) was 1.17% and the “inhibition relative to DMSO controls” value (MLL4 Complex; summary of Table 1) was “at least 7500”. It also gave a remaining activity at 20 µM (DNMT3b; [1]) of 84.8% and a remaining activity at 20 µM (DNMT3b; [2]) of 80.9%.
